What was measured:
hepatocellular carcinoma = assay: Liver cancer case report, oral Simvastatin treatment; assay type: in vivo, human
Experimental: (§1) Its use according to this invention in the treatment of malignant disease consists of daily administration of an 80 mg tablet orally.
(§2) In order to avoid unforeseen side effects, the treatment is initiated at about 20 mg dose tablet once daily for one week. The dose then is increased to about 40 mg once daily for an additional week. The following week the dose is increased to about 60 mg and on the fourth week the dose is increased to about 80 mg (two tablets of 40 mg each), and to remain so indefinitely. The intervals for stepping up the dosage can vary.

metastatic colon cancer = assay: Colon cancer case reports, oral Simvastatin treatment; assay type: in vivo, human; settings: Case #1, 20 mg daily raised to 80 mg; over three to four months
Experimental: as §1, §2
Case #1: business person who underwent hemicolectomy for adenocarcinoma of the colon in 1993 was presented in 1995 to Cedars Sinai Medical Center Liver Team for possible cryotherapy. At that time they had multiple masses in both lobes of the liver as well as outside their liver and multiple nodules in both lungs. Clinically they were bedridden, weak and malnourished. They were rejected as a suitable candidate for needle cryotherapy because of their advanced disease, and was considered unrescuable with a life expectancy of several weeks.
The dose was increased by 20 mg increments every two weeks up to the dose of 80 mg. […] […] gained 27 pounds, became normally active, including extensive travel around the world.
Case #2: person underwent hemicolectomy for cancer of the colon in 1995 because of intestinal obstruction. […]

CCC(C)(C)C(=O)O[C@H]1C[C@@H](C)C=C2C=C[C@H](C)[C@H](CC[C@@H]3C[C@@H](O)CC(=O)O3)[C@H]21 [Simvastatin]
tumor marker alpha fetoprotein (hepatocellular carcinoma; patient, baseline above 55,000, started January 1999, value by April of 1999): less than 8 | tumor marker alpha fetoprotein (hepatocellular carcinoma; same patient, value in March 2000): 2.4 | weight gain (metastatic colon cancer): 27 pounds

Reference: patent US6376537B1, “Cancer treatment” (priority 2000, dated 2002)
